US11434468B2, “Lactic acid bacteria and its applications” (Bened Biomedical Co., Ltd., priority 2017, dated 2022)

Experiments:
[1] = test system: rats subjected to chronic mild stress; test: Elevated plus maze after 4 weeks of chronic mild stress protocol; type: in vivo, rat; conditions: 4 weeks chronic mild stress, daily oral gavage (PS150 1×10^9 cfu; protein 300 mg/kg; alprazolam), 5 min, comparison between groups
Excerpt: The elevated plus maze (EPM) consists of four arms, two open arms without walls and two enclosed walls of 40 cm high, 50 cm long and 15 cm wide. Each arm of the maze is attached with firm metallic legs with 70 cm high. The EPM was placed in a room with bright lighting, close to the center of the room. The levels of illumination of both open and closed arms were maintained similar. A video camera was set up above the elevated plus maze to capture and record the animal's behavior.
Animal was taken out from its cage and placed at the middle (ie. the junction of the open and closed arm) of EPM, facing away from the maze towards the wall. Each animal was given 5 minutes to explore freely on the EPM. Throughout the assessment, the EPM was cleaned and dried with 70% ethanol before accessing the next animal. The number of open arm entries and time spent in open arms were observed, timed and recorded. The number of entries to open arms and the duration spent on open arms were recorded and expressed as mean±standard of means from six replicates (n=6) per group.
Analyses on rat behavior were carried out after 4 weeks of chronic mild stress protocol. […] Rats were placed at the junction of the four arms of the maze, facing an open arm, and entries/duration in each arm was recorded for 5 min. […]

[2] = test system: rats subjected to chronic mild stress; test: Open field test after 4 weeks of chronic mild stress protocol; type: in vivo, rat; conditions: 4 weeks chronic mild stress, daily oral gavage, 5 min open field test
Protocol: Open field test was performed using an opaque rectangular box with the dimension of 32 cm high, 38 cm width and 52 cm long was placed in the center of the experiment room supplied with bright lighting. A video camera was set up above the rectangular box to capture the behavior of the animals.
Each animal was gently transferred from its cage into the OFT and allowed to freely explore inside the box. […] The box was cleaned with 70% ethanol during the interval of each test throughout the assessment. The duration of exploratory and immobility was expressed as mean±standard of mean from six replicates (n=6) per group.
The open field test is broadly used to assess exploratory behavior and validated for use in the measurement of anxiety-related behaviors. The procedure consists of subjecting the rat, to an unknown environment from which escape is prevented by surrounding walls. […] Increased exploratory behaviours in rats indicate less anxiety states, whereas immobility indicate anxiety behaviour in rats.

[3] = test system: rats subjected to chronic mild stress; test: Forced swim test after 4 weeks of chronic mild stress protocol; type: in vivo, rat; conditions: 4 weeks chronic mild stress, daily oral gavage, 5 min forced swim test, comparison between groups, P<0.05, FIG. 3
Protocol: Forced swim test (FST) was performed in a black opaque swim cylinder with a depth of 68 cm and diameter of 40 cm. The cylinder was filled up with water to the depth of 30 cm, leaving some space on top to prevent the escape of rat. A video camera was set up above the swim cylinder to capture and record the animals' behavior during the test.
Each animal was gently placed into the water in the swim cylinder and was given 5 minutes to swim freely in the swim cylinder. The behavior of the animals were observed and recorded throughout the test. All rats were dried thoroughly with clean towel after the FST before returning them to their respective cage throughout the assessment. The duration of immobility of the rats were timed and then expressed as mean±standard of mean from six replicates (n=6) per group.
Forced swim test is one of the most commonly used assays for the study of depressive-like behavior in rodents. […] In forced swim test, a swimming cylinder filled with 30 cm depth of water. Depression assessment of rats was performed by scoring predominant behavior in each 5-s period of the 300-s test.

[4] = test system: rats subjected to chronic mild stress; test: Morris water maze after chronic mild stress; type: in vivo, rat; conditions: 4 weeks chronic mild stress, daily oral gavage, comparison between groups, P<0.05, FIG. 6(a)
Protocol: The diameter of the MWM used was 210 cm, where the height of the pool was 51 cm with non-reflective interior surfaces. The maze was placed in a room with a video camera set up on top of the maze to capture and record the animal's behavior. The water maze was filled up with water of temperature ranging within 19-22° C. to avoid the rats from getting temperature shock (hypothermia or hyperthermia). Then, a colorless and transparent circular goal or platform (designated as escape platform) with the diameter of 10-12 cm was submerged 1-2 cm below the water surface and ensured with stability to avoid tipping of animal when the rats climb on it.
The start locations of the MWM was designated at East, West and South East, while the escape platform is submerge at North East. A consecutive four daily trials were performed using these three start locations. Briefly, the animals were gently placed on the first start locations and allowed to swim freely to search for the escape platform. A maximum of two minutes was given for each animal to perform the search for the escape platform. All rats were dried thoroughly with clean towel after the Morris test before returning them to their respective cage. Time taken by each animal to locate the escape, escape latency (seconds) is expressed as mean±standard of mean from six replicates (n=6) per group. […]

[5] = test system: SH-SY5Y neuroblastoma cells; test: Cell viability (MTT) upon dexamethasone-induced neurotoxicity; type: cell-based, human; conditions: dexamethasone 25 μM, MTT 48 h after treatment, unfermented MRS control = 100% viability, FIG. 11
Protocol: Neuroblastoma cell line, SH-SY5Y cells were purchased from Korea Cell Line Bank (KCLB; Seoul, Korea). Cells were maintained in high glucose Dulbecco's Modified Eagle Medium (DMEM; Difco, Detroit, Mich., USA) supplemented with 10% heat-inactivated fetal bovine serum (FBS; Gibco Life Technologies Inc, Grand Island, N.Y., USA), 100 U/mL penicillin/streptomycin (Gibco Life Technologies Inc, Grand Island, N.Y., USA). Cultures were seeded into flasks containing supplemented medium and maintained at 37° C. in a humidified atmosphere of 5% CO2 and 95% air.
The SH-SY5Y cells were seeded into 96-well culture plates at a seeding density 1×10^5 cells per well. All cells in this study were maintained in 10% serum medium until the dexamethasone (Dex; Sigma-Aldrich, Steinheim, Germany) treatment. Cells were incubated for 24 h to allow attachment to the culture plate before treatment. […] The 3-(4, 5 dimethylthiazol-2-yl)-2,5-diphenyl-tetrazolium bromide (MTT; Sigma-Aldrich, Steinheim, Germany) reduction was analyzed 48 h after treatment.
Cell viability was measured by quantitative colorimetric assay with MTT, as described previously by Denizot and Lang (J Immunol Methods. 1986 May 22; 89(2):271-7.). […] Colorimetric determination of MTT reduction was measured at 570 nm using microplate reader (Thermo Scientific, Waltham, Mass., US). […]

Compound | Number of entries into the open arms ([1]; P<0.05, FIG. 1(a)) | Ratio of time spent on the closed arms to the time spent on the open arms ([1]; P<0.05, FIG. 1(b)) | Duration of immobility ([2]; between naïve control, positive control, PS150 and protein fraction groups, FIG. 2) | Duration of exploratory activity ([2]; comparison between groups, P<0.05, FIG. 2) | Time spent immobile [3] | Escape latency [4] | Neuroprotective effect (cell viability) against dexamethasone [5]
Cc1nnc2n1-c1ccc(Cl)cc1C(c1ccccc1)=NC2 [alprazolam] | insignificant differences | insignificant differences | insignificantly different | insignificantly different | insignificantly different | Insignificant difference | –
fraction A: HPLC-purified fraction of the PS150 protein fraction, approximately 55 kDa, identified as elongation factor Tu (SEQ ID NO:4) | – | – | – | – | – | – | most prevalent neuroprotective effect
